Patent US12559464B2, “Quinazolinone dione compounds and uses thereof” (Edgewise Therapeutics, Inc., priority 2023, dated 2026)

Assays:
[1] = test system: myosin ATPase, Porcine Atria myofibrils; assay: Myofibril ATPase assay, porcine atria myofibrils; type: biochemical; settings: concentration required to reduce myosin ATP-ase activity by 25%; Porcine Atria Prep pCa 25 GEOM_MEAN
[2] = molecular target: T1, myosin ATPase, Porcine Ventricle myofibrils (Sus scrofa, UniProt P79293); assay: Myofibril ATPase assay, porcine ventricle myofibrils; type: biochemical, porcine (Yucatan minipigs); settings: concentration required to reduce myosin ATP-ase activity by 25%; Porcine Ventricle Prep pCa 25 GEOM_MEAN
T1 construct: Myofibrils from porcine cardiac muscle was isolated from the left ventricle of Yucatan minipigs; tissue Exemplar Genetics; host or cells: left ventricle of Yucatan minipigs, myofibrils
Protocol: (§1) Myofibril ATPase assays are known in the art to be useful in evaluating small molecules for the treatment of HCM and other cardiac indications. Myosin ATPase activity is assessed by using a coupled reaction system, in which ADP generated by the myosin ATPase function is coupled to the disappearance of NADH through the pyruvate kinase/lactate dehydrogenase (PK-LDH) system. ATPase activity produces ADP, which is used as a substrate for PK to produce pyruvate and regenerate ATP. The pyruvate is then used as a substrate by LDH to oxidize NADH to NAD+. The rate of the reaction is monitored through the time-dependent disappearance of NADH using absorbance at 340 nm, which, when the couple system is in stoichiometric excess, is directly correlated to the ATPase activity of the myosin. Inhibition of ATPase activity by the assayed compounds is indicated by a reduced rate of NADH loss, relative to vehicle-treated controls, over the experimental time window. Porcine Ventricle are the primary sources of myofibril material.
(§2) Materials: The following stock solutions and reagents were used in the Myofibril ATPase Assay: Stock Solutions; PIPES, 200 mM and 120 mM in H2O, pH 7.0; MgCl2 in H2O, 200 mM; PM12 Buffer, 10×: 120 mM PIPES (from 200 mM stock), 20 mM MgCl2 (from 200 mM stock); PBS Buffer, 1X: 135 mM NaCl, […], 10 mM Na(PO4)2, 1.8 mM K2(PO4), pH 7.4; EGTA in H2O, 250 mM; CaCl2) in H2O, 500 mM; DTT in H2O, 1 M; BSA in H2O, 10 mg/mL; ATP in 1×PBS, 50 mM; NADH in 1X PM12 and 1 mM DTT, 26 mM; PEP in 1X PM12, 78 mM, pH 7.0.
(§3) Stock Solutions of pCa buffer. Combine PIPES, CaCl2, and EGTA solutions with water. Adjust pH to 7.0 and bring final volume to 100 mL.
(§4) Buffer A & Buffer B. Prepare buffers A and B according to the table below.
(§5) Myofibril ATPase Assay Procedure: BSA, ATP, NADH, PEP, and DTT solutions were thawed at room temperature, then transferred to ice. Pellet-frozen myofibrils were transferred with approximately twice the required volume into a sufficiently large tube and capped. Myofibrils were thawed by rolling in a water bath for approximately 15 min at room temperature and cooled on ice. Buffers A and B were prepared by adjusting volumes as necessary for required number of wells and stored on ice. 0.5 μL of the compounds to be assayed were added into wells. 25 μL of Buffer A was dispensed into the wells, followed by 25 μL of Buffer B. The wells were measured for absorbance at 340 nm, using a kinetic protocol in which the wells are read every 1.5-2 min for 75 min. Assay data analysis was performed using a python script that filtered the raw data to retain those points falling between a starting and ending time and between a maximum and minimum absorbance, then used the filtered time-domain 340 nm absorbance data in each well to calculate a slope via linear regression analysis in units of mAU/min. Compound slopes were normalized between 100% and 0% activity, where 100% represented the slope of wells containing only compound vehicle, and fit to a 4-parameter logistic model. In addition to the fit parameters, the EC25% values were calculated, relative to the 100% normalized value. Additionally, the Y125 values were calculated for compounds that increased myosin ATP-ase activity. Fit parameters, calculated effective concentrations, filtered raw data, and calculated slopes were exported, in addition to compound-specific graphs of normalized ATPase activity versus concentration in μM. Each value reported in Table 8 is either a Y75 value or a Y125 value. Values without pound sign, #, are Y75 values, which reflect the concentration required to reduce myosin ATP-ase activity by 25% (e.g., Y-axis activity value is 75% of initial value), relative to myosin ATP-ase activity in the absence of exogenous compound. […]

[3] = test system: myosin ATPase, Rabbit Psoas myofibrils; assay: Myofibril ATPase assay, rabbit psoas (skeletal) myofibrils; type: biochemical; settings: concentration required to reduce myosin ATP-ase activity by 25%; Rabbit Psoas Prep pCa 25 GEOM_MEAN
Protocol: [Worded in the source for another species; this species is reported under the same test.] as §1, §2, §3, §4, §5

T1 sequence (P79293 whole entry): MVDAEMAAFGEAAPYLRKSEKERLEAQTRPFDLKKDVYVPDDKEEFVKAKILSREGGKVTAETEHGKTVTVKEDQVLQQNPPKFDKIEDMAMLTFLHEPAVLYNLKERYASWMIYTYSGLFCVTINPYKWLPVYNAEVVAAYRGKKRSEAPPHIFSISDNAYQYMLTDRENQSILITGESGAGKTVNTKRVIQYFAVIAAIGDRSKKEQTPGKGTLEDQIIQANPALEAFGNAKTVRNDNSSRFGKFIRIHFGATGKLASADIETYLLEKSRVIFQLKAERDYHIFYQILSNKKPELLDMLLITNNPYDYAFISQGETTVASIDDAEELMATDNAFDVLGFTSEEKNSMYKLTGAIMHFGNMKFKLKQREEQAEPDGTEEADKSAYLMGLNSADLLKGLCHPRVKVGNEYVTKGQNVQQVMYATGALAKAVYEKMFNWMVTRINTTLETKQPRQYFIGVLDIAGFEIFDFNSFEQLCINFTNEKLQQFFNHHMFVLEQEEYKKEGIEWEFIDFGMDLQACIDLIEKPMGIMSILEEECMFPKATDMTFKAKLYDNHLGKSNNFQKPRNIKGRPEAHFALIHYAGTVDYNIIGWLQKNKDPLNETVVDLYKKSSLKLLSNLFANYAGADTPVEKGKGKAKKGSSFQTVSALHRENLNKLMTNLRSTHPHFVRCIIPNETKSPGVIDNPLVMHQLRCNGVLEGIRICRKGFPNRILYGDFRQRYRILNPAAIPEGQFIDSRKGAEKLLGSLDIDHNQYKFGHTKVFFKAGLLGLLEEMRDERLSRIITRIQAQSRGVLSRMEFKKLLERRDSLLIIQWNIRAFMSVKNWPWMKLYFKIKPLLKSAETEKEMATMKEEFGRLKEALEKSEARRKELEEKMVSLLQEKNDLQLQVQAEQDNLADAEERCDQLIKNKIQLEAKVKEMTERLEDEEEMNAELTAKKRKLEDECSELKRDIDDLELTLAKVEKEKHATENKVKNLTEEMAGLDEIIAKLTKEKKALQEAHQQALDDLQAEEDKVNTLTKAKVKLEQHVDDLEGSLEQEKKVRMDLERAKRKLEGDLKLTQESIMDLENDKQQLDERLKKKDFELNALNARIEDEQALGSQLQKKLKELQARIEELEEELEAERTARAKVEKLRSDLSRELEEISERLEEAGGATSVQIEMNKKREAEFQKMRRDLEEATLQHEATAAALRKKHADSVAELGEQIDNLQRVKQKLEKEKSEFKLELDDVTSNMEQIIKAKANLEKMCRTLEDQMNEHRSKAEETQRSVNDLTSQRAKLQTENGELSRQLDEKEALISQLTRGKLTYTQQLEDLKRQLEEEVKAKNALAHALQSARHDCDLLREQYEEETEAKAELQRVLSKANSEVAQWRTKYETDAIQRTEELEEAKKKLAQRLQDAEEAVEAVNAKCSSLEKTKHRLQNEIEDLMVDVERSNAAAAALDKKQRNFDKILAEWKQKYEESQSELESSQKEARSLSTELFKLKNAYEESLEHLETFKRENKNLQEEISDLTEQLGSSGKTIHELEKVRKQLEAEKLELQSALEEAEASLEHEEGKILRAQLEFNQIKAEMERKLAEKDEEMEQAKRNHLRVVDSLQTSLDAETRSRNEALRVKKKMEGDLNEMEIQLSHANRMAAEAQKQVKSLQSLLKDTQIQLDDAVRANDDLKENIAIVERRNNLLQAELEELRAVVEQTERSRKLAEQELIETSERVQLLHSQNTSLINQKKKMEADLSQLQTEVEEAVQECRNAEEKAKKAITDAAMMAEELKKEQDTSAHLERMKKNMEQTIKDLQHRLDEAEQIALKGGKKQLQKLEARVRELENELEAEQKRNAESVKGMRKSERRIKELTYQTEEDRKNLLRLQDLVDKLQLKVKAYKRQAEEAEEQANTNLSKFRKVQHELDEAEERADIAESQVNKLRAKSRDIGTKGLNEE

| Porcine Atria EC25 (Y75 value) [1] [µM] | Porcine Ventricle EC25 (Y75 value) [2] [µM] | Rabbit Psoas EC25 (Y75 value) [3] [µM] | SMILES |
| --- | --- | --- | --- |
| 0.085 | 0.254 | 0.065 | C[C@H](NC(=O)Cn1c(=O)[nH]c2cccc(F)c2c1=O)c1ncc(C#N)cc1F (single isomer, unassigned) [Compound 208] |
| 100 | 100 | 100 | COc1ccc(F)cc1C(C)NC(=O)Cn1c(=O)[nH]c2ccccc2c1=O (stereo not drawn) [Compound 520, 2-(2,4-dioxo-1,4-dihydroquinazolin-3(2H)-yl)-N-(1-(5-fluoro-2-methoxyphenyl)ethyl)acetamide] |
| 100 | 100 | 39.51 | C[C@@H](NC(=O)Cn1c(=O)[nH]c2ccc(F)cc2c1=O)c1cnc(C#N)nc1 (single isomer, unassigned) [Compound 209] |
| 100 | 100 | 100 | COc1ccc2c(=O)n(CC(=O)N[C@@H](C)c3ccc(F)cc3F)c(=O)[nH]c2c1 [Compound 142, (S)-N-(1-(2,4-difluorophenyl)ethyl)-2-(7-methoxy-2,4-dioxo-1,4-dihydroquinazolin-3(2H)-yl)acetamide] |
| 2.081 | 100 | 9.2 | C[C@H](NC(=O)Cn1c(=O)[nH]c2cc(F)ccc2c1=O)c1ccc(F)cc1F [Compound 143, (S)-N-(1-(2,4-difluorophenyl)ethyl)-2-(7-fluoro-2,4-dioxo-1,4-dihydroquinazolin-3(2H)-yl)acetamide] |
| 100 | 100 | 100 | C[C@H](NC(=O)Cn1c(=O)[nH]c2cncnc2c1=O)c1ccc(F)cc1F [Compound 96, (S)-N-(1-(2,4-difluorophenyl)ethyl)-2-(2,4-dioxo-1,4-dihydropyrimido[5,4-d]pyrimidin-3(2H)-yl)acetamide] |
| 0.1151 | 0.2524 | 0.019 | C[C@H](NC(=O)Cn1c(=O)[nH]c2cccc(O)c2c1=O)c1ccc(F)cc1F [Compound 72, (S)-N-(1-(2,4-difluorophenyl)ethyl)-2-(5-hydroxy-2,4-dioxo-1,4-dihydroquinazolin-3(2H)-yl)acetamide] |
| 0.3539 | 100 | 7.16 | C[C@H](NC(=O)Cn1c(=O)[nH]c2cc(Cl)ccc2c1=O)c1ccc(F)cc1F [Compound 407, (S)-2-(7-chloro-2,4-dioxo-1,4-dihydroquinazolin-3(2H)-yl)-N-(1-(2,4-difluorophenyl)ethyl)acetamide] |
| 100 | 100 | 100 | C[C@@H](NC(=O)Cn1c(=O)[nH]c2ccccc2c1=O)c1ccc(F)cc1F [Compound 166, (R)-N-(1-(2,4-difluorophenyl)ethyl)-2-(2,4-dioxo-1,4-dihydroquinazolin-3(2H)-yl)acetamide] |
| 100 | 100 | 100 | C[C@H](NC(=O)Cn1c(=O)[nH]c2ccccc2c1=O)c1ccncc1F (single isomer, unassigned) [Compound 99] |
| 12.67 | 53.2 | 3.86 | CCC(NC(=O)Cn1c(=O)[nH]c2ccccc2c1=O)c1ccc(F)cc1F (stereo not drawn) [Compound 71, N-(1-(2,4-difluorophenyl)propyl)-2-(2,4-dioxo-1,4-dihydroquinazolin-3(2H)-yl)acetamide] |

The next lines start with the compound.

| SMILES | Porcine Atria EC25 (Y75 value) [1] [µM] | Porcine Ventricle EC25 (Y75 value) [2] [µM] | Rabbit Psoas EC25 (Y75 value) [3] [µM] |
| --- | --- | --- | --- |
| C[C@H](NC(=O)[C@@H](C)n1c(=O)[nH]c2cccc(O)c2c1=O)c1ccc(F)cc1F (single isomer, unassigned) [Compound 36] | 0.0803 | 1.35 | 0.104 |
| C[C@H](NC(=O)[C@@H](CC1CC1)n1c(=O)[nH]c2ccccc2c1=O)c1ccc(F)cc1F (single isomer, unassigned) [Compound 502] | 43.27 | 100 | 13.814 |
| O=C(Cn1c(=O)[nH]c2ccccc2c1=O)N[C@H]1CCCc2cc(F)cc(F)c21 (single isomer, unassigned) [Compound 55] | 100 | 100 | 100 |
| Cc1c(F)ccc2[nH]c(=O)n(CC(=O)N[C@H](C)c3ncc(C#N)cn3)c(=O)c12 (single isomer, unassigned) [Compound 3005] | 2.78 | 11.35 | 2.34 |
| C[C@H](NC(=O)[C@H](C)n1c(=O)[nH]c2cccc(O)c2c1=O)c1ccc(F)cc1F (single isomer, unassigned) [Compound 35] | 0.0835 | 1.64 | 0.086 |
| COCn1c(=O)n(CC(=O)N[C@@H](C)c2ccc(F)cc2F)c(=O)c2cc(F)ccc21 [Compound 402, (S)-N-(1-(2,4-difluorophenyl)ethyl)-2-(6-fluoro-1-(methoxymethyl)-2,4-dioxo-1,4-dihydroquinazolin-3(2H)-yl)acetamide] | 100 | 100 | 100 |
| C[C@H](NC(=O)Cn1c(=O)[nH]c2ccc(F)c(F)c2c1=O)c1ccc(C#N)nn1 (single isomer, unassigned) [Compound 4] | 0.178 | 4.869 | 0.204 |
| CC(C)[C@H](N)C(=O)OCn1c(=O)n(CC(=O)N[C@@H](C)c2ccc(F)cc2F)c(=O)c2cc(F)ccc21 [Compound 401, (3-(2-(((S)-1-(2,4-difluorophenyl)ethyl)amino)-2-oxoethyl)-6-fluoro-2,4-dioxo-3,4-dihydroquinazolin-1(2H)-yl)methyl L-valinate] | 46.5 | 100 | 6.978 |
| COc1ccc([C@H](C)NC(=O)Cn2c(=O)[nH]c3ccccc3c2=O)cc1 (single isomer, unassigned) [Compound 529] | 100 | 100 | 100 |
| Cc1c(F)ccc2[nH]c(=O)n(CC(=O)N[C@H]3CCc4cc(C#N)cnc43)c(=O)c12 [Compound 10, (S)-N-(3-cyano-6,7-dihydro-5H-cyclopenta[b]pyridin-7-yl)-2-(6-fluoro-5-methyl-2,4-dioxo-1,4-dihydroquinazolin-3(2H)-yl)acetamide] | 100 | 100 | 100 |
